According to patent US20240368565A1, “COMPLEMENTATION-BASED TAGS AND REPORTERS FOR DUAL-MODALITY LABELING” (Promega Corporation, priority 2023, published 2024):
Values joined by “and” are separate entries in the source; they are usually repeats but may differ in a detail not shown here. Identical values can stand only once. Peptide text beside a SMILES is read from it. * marks the point of attachment. Biotin = O=C1N[C@H]2[C@H](CS[C@H]2CCCCC(=O)*)N1

Key:
[1] = molecular target: HaloTag[22-297](M2F)-12xGly/Ser-LgBiT-3xGly/Ser-6xHis (Rhodococcus rhodochrous, UniProt P0A3G2, A155T/A167V/A172T/A224E/C128F/C176G/D78G/E160K/E257K/H272N/K175M/K195N/L47V/L88M/N227D/S58T/T264A/Y273L/Y87F); assay: biochemical; type: binding
[2] = molecular target: HaloTag[22-297](M2F + K140E)-12xGly/Ser-LgBiT-3xGly/Ser-6xHis (Rhodococcus rhodochrous, UniProt P0A3G2, A155T/A167V/A172T/A224E/C128F/C176G/D78G/E257K/H272N/K175M/K195N/L47V/L88M/N227D/S58T/T264A/Y273L/Y87F); assay: biochemical; type: binding; settings: biotinylated peptide on streptavidin probes, PBST, 25° C.
[3] = molecular target: HaloTag[22-297](M2F + F148M + V177E)-12xGly/Ser-LgBiT-3xGly/Ser-6xHis (Rhodococcus rhodochrous, UniProt P0A3G2, A155T/A167V/A172T/A224E/C128F/C176G/D78G/E160K/E257K/F168M/H272N/K175M/K195N/L47V/L88M/N227D/S58T/T264A/V197E/Y273L/Y87F); assay: biochemical; type: binding
[4] = molecular target: HaloTag[22-297](M2F + D53G + K140E)-12xGly/Ser-LgBiT-3xGly/Ser-6xHis (Rhodococcus rhodochrous, UniProt P0A3G2, A155T/A167V/A172T/A224E/C128F/C176G/D73G/D78G/E257K/H272N/K175M/K195N/L47V/L88M/N227D/S58T/T264A/Y273L/Y87F); assay: biochemical; type: binding
[5] = molecular target: HaloTag[22-297](M2F + D53G + V177E)-12xGly/Ser-LgBiT-3xGly/Ser-6xHis (Rhodococcus rhodochrous, UniProt P0A3G2, A155T/A167V/A172T/A224E/C128F/C176G/D73G/D78G/E160K/E257K/H272N/K175M/K195N/L47V/L88M/N227D/S58T/T264A/V197E/Y273L/Y87F); assay: biochemical; type: binding
[6] = molecular target: HaloTag[22-297](M2F)-12×Gly/Ser-LgBiT-6×His (Rhodococcus rhodochrous, UniProt P0A3G2, A155T/A167V/A172T/A224E/C128F/C176G/D78G/E160K/E257K/H272N/K175M/K195N/L47V/L88M/N227D/S58T/T264A/Y273L/Y87F); type: biochemical; settings: purified reporter, 30 minutes at 4° C., furimazine
[7] = molecular target: LgBiT-6xHis (Oplophorus gracilirostris, UniProt Q9GV45, A31E/A60N/A81I/D135N/F58L/F95D/G42A/G62A/G78A/G94A/G98A/H120P/I103V/I117V/I134L/K70R/L176M/L54V/L73R/L99Q/M102E/N171T/P142E/Q151K/Q38E/Q45L/V71I/Y165I); assay: biochemical; type: binding
[8] = biotinylated peptide on streptavidin probes, PBST, 25° C.

HaloTag[22-297](M2F + F148M + V177E)-12xGly/Ser-LgBiT-3xGly/Ser-6xHis, sequence (P0A3G2 23-290 with tags or gaps with the stated changes): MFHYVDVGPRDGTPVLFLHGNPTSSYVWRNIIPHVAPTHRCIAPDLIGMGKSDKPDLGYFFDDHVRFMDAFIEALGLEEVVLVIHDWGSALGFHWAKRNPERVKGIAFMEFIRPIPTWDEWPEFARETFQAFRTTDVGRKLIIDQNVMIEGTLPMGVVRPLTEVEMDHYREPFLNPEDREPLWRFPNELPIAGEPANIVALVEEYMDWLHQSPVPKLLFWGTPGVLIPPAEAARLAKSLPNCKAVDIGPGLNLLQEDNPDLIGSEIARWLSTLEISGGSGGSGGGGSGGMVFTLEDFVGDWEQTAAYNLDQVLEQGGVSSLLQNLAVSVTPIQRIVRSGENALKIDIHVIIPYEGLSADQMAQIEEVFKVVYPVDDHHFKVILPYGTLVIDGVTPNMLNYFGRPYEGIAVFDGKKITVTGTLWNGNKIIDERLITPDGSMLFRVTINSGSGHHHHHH
HaloTag[22-297](M2F + D53G + V177E)-12xGly/Ser-LgBiT-3xGly/Ser-6xHis, sequence (P0A3G2 23-290 with tags or gaps with the stated changes): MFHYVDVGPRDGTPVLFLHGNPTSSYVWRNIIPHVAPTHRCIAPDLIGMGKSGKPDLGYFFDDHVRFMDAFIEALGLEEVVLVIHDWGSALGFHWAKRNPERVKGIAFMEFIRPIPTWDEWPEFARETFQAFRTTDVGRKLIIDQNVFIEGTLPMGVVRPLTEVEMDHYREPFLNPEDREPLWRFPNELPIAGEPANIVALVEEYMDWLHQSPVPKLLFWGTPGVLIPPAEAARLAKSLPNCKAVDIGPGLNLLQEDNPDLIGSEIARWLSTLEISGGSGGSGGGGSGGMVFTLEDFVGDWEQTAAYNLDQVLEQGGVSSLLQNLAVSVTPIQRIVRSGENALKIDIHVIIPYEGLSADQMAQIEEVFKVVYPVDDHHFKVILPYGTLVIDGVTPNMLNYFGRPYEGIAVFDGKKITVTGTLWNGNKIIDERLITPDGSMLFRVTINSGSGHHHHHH
HaloTag[22-297](M2F)-12xGly/Ser-LgBiT-3xGly/Ser-6xHis, sequence (P0A3G2 23-290 with tags or gaps with the stated changes): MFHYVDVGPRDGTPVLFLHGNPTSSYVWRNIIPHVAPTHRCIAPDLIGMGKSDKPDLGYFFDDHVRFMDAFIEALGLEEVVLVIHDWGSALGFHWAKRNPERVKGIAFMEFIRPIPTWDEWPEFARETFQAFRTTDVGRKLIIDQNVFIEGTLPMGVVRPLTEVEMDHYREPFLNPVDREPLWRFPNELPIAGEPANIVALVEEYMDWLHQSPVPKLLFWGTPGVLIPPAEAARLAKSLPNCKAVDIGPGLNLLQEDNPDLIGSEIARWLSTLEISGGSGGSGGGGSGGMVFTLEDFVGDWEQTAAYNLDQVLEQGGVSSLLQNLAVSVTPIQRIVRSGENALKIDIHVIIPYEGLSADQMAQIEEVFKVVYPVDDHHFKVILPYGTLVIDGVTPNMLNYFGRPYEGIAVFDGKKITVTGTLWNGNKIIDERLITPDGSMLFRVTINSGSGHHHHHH
HaloTag[22-297](M2F + D53G + K140E)-12xGly/Ser-LgBiT-3xGly/Ser-6xHis, sequence (P0A3G2 23-290 with tags or gaps with the stated changes): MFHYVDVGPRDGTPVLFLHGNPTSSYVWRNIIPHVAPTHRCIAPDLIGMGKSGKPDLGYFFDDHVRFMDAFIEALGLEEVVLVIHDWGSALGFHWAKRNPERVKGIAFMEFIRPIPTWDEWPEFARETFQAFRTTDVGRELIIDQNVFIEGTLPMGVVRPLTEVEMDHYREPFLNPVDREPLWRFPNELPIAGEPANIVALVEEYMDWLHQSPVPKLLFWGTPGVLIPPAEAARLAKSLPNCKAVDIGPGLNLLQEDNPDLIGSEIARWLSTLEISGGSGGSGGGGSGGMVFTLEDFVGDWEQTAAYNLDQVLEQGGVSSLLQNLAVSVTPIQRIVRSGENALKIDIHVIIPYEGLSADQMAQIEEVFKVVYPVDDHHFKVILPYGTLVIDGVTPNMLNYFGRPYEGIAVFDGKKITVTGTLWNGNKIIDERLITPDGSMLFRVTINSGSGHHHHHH

Q: With `CC[C@H](C)[C@H](NC(=O)[C@H](CCCCN)NC(=O)[C@H](CCCCN)NC(=O)[C@H](Cc1ccccc1)NC(=O)[C@H](CC(C)C)NC(=O)[C@H](CCCNC(=N)N)NC(=O)[C@H](Cc1c[nH]c2ccccc12)NC(=O)CNC(=O)[C@H](CO)NC(=O)[C@@H](NC(=O)[C@H](CO)NC(=O)[C@@H](NC(=O)CNC(=O)[C@H](CO)NC(=O)CNC(=O)CNC(=O)CNC(=O)[C@H](CC(C)C)NC(=O)[C@@H](NC(=O)[C@H](CCC(=O)O)NC(=O)[C@@H](NC(=O)[C@H](Cc1ccc(O)cc1)NC(=O)[C@H](Cc1c[nH]cn1)NC(=O)[C@@H]1CCCN1C(=O)[C@H](CC(=O)O)NC(=O)[C@H](Cc1ccccc1)NC(=O)[C@@H]1CCCN1C(=O)[C@H](Cc1ccccc1)NC(=O)CNC(=O)[C@@H](NC(=O)CNC(=O)[C@H](CCCNC(=N)N)NC(=O)[C@H](CCC(=O)O)NC(=O)CCCC[C@@H]1SC[C@@H]2NC(=O)N[C@@H]21)[C@@H](C)O)C(C)C)C(C)C)C(C)C)C(C)C)C(=O)N[C@@H](CO)C(=O)O` [HaloTag[3-19](I2R)-4xGly/Ser-VSHiBiT] (Biotin-ERGTGFPFDPHYVEVLGGGSGVSVSGWRLFKKIS-OH) as the compound, how does the Kd [1] read?
A: Its Kd is 1.61 nM.

Q: And the Kd [2]?
A: The Kd was 0.684 nM and 0.466 nM.

Q: What about the Kd [3] of the same compound?
A: The Kd was 0.509 nM.

Q: And the Kd [4]?
A: Its Kd is 0.576 nM.

Q: And the Kd [5]?
A: The Kd was 0.669 nM.

Q: For “KFNDQWNYRANFLKIRRVSVSGWRLFKKIS [Peptide 1061]”, which “Complementing the reporter to enhance luminescence signal” value [6] is on record?
A: The value was “still functional”.

Q: With `CC[C@H](C)[C@H](NC(=O)[C@H](CCC(=O)O)NC(=O)CCCC[C@@H]1SC[C@@H]2NC(=O)N[C@@H]21)C(=O)NCC(=O)N[C@H](C(=O)N[C@@H](CCCNC(=N)N)C(=O)N[C@@H](Cc1ccccc1)C(=O)N1CCC[C@H]1C(=O)N[C@@H](Cc1ccccc1)C(=O)N[C@@H](CC(=O)O)C(=O)N1CCC[C@H]1C(=O)N[C@@H](Cc1c[nH]cn1)C(=O)N[C@@H](Cc1ccc(O)cc1)C(=O)N[C@H](C(=O)N[C@@H](CCC(=O)O)C(=O)N[C@H](C(=O)N[C@@H](CC(C)C)C(=O)NCC(=O)NCC(=O)NCC(=O)N[C@@H](CO)C(=O)NCC(=O)N[C@H](C(=O)N[C@@H](CO)C(=O)N[C@H](C(=O)N[C@@H](CO)C(=O)NCC(=O)N[C@@H](Cc1c[nH]c2ccccc12)C(=O)N[C@@H](CCCNC(=N)N)C(=O)N[C@@H](CC(C)C)C(=O)N[C@@H](Cc1ccccc1)C(=O)N[C@@H](CCCCN)C(=O)N[C@@H](CCCCN)C(=O)N[C@H](C(=O)N[C@@H](CO)C(=O)O)[C@@H](C)CC)C(C)C)C(C)C)C(C)C)C(C)C)[C@@H](C)O` [HaloTag[3-19](G5R)-4xGly/Ser-VSHiBiT] (Biotin-EIGTRFPFDPHYVEVLGGGSGVSVSGWRLFKKIS-OH) as the compound, how does the Kd [3] read?
A: The Kd was 0.485 nM.

Q: Which results are given for “EIGTGFPFRPHYVEVRGGGSGVSVSGWRLFKKIS [HaloTag[3-19](D9R + L16R)-4xGS-VSHiBiT]”?
A: Koff [2]: NA (dissociation that is too slow for the instrument to measure (limit 10^6 l/s)); Kon [2]: 134000 M⁻¹ s⁻¹; Koff [7, 8]: NA (dissociation that is too slow for the instrument to measure (limit 10^6 l/s)); Kon [7, 8]: 64800 M⁻¹ s⁻¹

Q: Which Kd [2] does the source give for `CC[C@H](C)[C@H](NC(=O)[C@H](CCCCN)NC(=O)[C@H](CCCCN)NC(=O)[C@H](Cc1ccccc1)NC(=O)[C@H](CC(C)C)NC(=O)[C@H](CCCNC(=N)N)NC(=O)[C@H](Cc1c[nH]c2ccccc12)NC(=O)CNC(=O)[C@H](CO)NC(=O)[C@@H](NC(=O)[C@H](CO)NC(=O)[C@@H](NC(=O)CNC(=O)[C@H](CO)NC(=O)CNC(=O)CNC(=O)CNC(=O)[C@H](CC(C)C)NC(=O)[C@@H](NC(=O)[C@H](CCC(=O)O)NC(=O)[C@@H](NC(=O)[C@H](Cc1ccc(O)cc1)NC(=O)[C@H](Cc1c[nH]cn1)NC(=O)[C@@H]1CCCN1C(=O)[C@H](CC(=O)O)NC(=O)[C@H](Cc1ccccc1)NC(=O)[C@@H]1CCCN1C(=O)[C@H](Cc1ccccc1)NC(=O)CNC(=O)[C@@H](NC(=O)[C@H](CCCCN)NC(=O)[C@@H](NC(=O)[C@H](CCC(=O)O)NC(=O)CCCC[C@@H]1SC[C@@H]2NC(=O)N[C@@H]21)[C@@H](C)CC)[C@@H](C)O)C(C)C)C(C)C)C(C)C)C(C)C)C(=O)N[C@@H](CO)C(=O)O` [HaloTag[3-19](G3K)-4xGly/Ser-VSHiBiT] (Biotin-EIKTGFPFDPHYVEVLGGGSGVSVSGWRLFKKIS-OH) here?
A: The Kd was 0.264 nM.

Q: What about the Kd [3] of the same compound?
A: Its Kd is 0.102 nM.

Q: How did the Kd [7] turn out when `CC[C@H](C)[C@H](NC(=O)[C@H](CCCCN)NC(=O)[C@H](CCCCN)NC(=O)[C@H](Cc1ccccc1)NC(=O)[C@H](CC(C)C)NC(=O)[C@H](CCCNC(=N)N)NC(=O)[C@H](Cc1c[nH]c2ccccc12)NC(=O)CNC(=O)[C@H](CO)NC(=O)[C@@H](NC(=O)[C@H](CO)NC(=O)[C@@H](NC(=O)CNC(=O)[C@H](CO)NC(=O)CNC(=O)CNC(=O)CNC(=O)[C@H](CC(C)C)NC(=O)[C@@H](NC(=O)[C@H](CCC(=O)O)NC(=O)[C@@H](NC(=O)[C@H](Cc1ccc(O)cc1)NC(=O)[C@H](Cc1c[nH]cn1)NC(=O)[C@@H]1CCCN1C(=O)[C@H](CC(=O)O)NC(=O)[C@H](Cc1ccccc1)NC(=O)[C@@H]1CCCN1C(=O)[C@H](Cc1ccccc1)NC(=O)[C@H](CCCNC(=N)N)NC(=O)[C@@H](NC(=O)CNC(=O)[C@H](CCCNC(=N)N)NC(=O)[C@H](CCC(=O)O)NC(=O)CCCC[C@@H]1SC[C@@H]2NC(=O)N[C@@H]21)[C@@H](C)O)C(C)C)C(C)C)C(C)C)C(C)C)C(=O)N[C@@H](CO)C(=O)O` [HaloTag[3-19](I2R + G5R)-4xGS-VSHiBiT] (Biotin-ERGTRFPFDPHYVEVLGGGSGVSVSGWRLFKKIS-OH) was run?
A: The Kd was 0.11 nM.
